Test results taken from paper PMC4450297, “Screening Active Compounds from Garcinia Species Native to China Reveals Novel Compounds Targeting the STAT/JAK Signaling Pathway” (BioMed Research International, 2015).

Tests used:
Experiment in all cases: Cell panel screen (CellTiter-Glo)
Format in all cases: cell-based, human
[1] = tested on: A498; conditions: A498 (listed under Lung), 20 micromolar, 72 hrs
Experimental: (§1) All cells were obtained from the cell bank of the American Type Culture Collection (ATCC) and cultured in the supplier's recommended media supplemented with 10% FBS. The cell panel screen was measured using the CellTiter-Glo assay (Promega, Madison, WI) following a standard protocol. Briefly, cancer cells were seeded in 96-well plates and cultured overnight at 37°C with or without 5% CO2 in an incubator. Each compound was dissolved with limited DMSO and diluted to a certain concentration with culture medium and then added to the corresponding well of the cell plate. The final concentration of compound was 20 μM. The control cells (without treatment) received the same amount of DMSO and were incubated under the same conditions. After 72 h cultivation, 100 μL of the CellTiter-Glo reagent was added directly to each well for 10-minute incubation. The plate was then read on a FlexStation 3 microplate luminometer (Molecular Devices, USA) to monitor the luminescence signal generated by the luciferase-catalyzed reaction of luciferin and ATP. The percent of growth inhibition was calculated using the following formula: (untreated cells − treated cells)/(untreated cells − background without cells) ∗ 100.

[2] = tested on: A704; conditions: A704 (Kidney), 20 micromolar, 72 hrs
Experimental: as §1

[3] = tested on: BT-474; conditions: BT-474 (Breast), 20 micromolar, 72 hrs
Experimental: as §1

[4] = tested on: BT-549; conditions: BT-549 (Breast), 20 micromolar, 72 hrs
Experimental: as §1

[5] = tested on: Bel-7402; conditions: Bel-7402 (Liver), 20 micromolar, 72 hrs
Experimental: as §1

[6] = tested on: C3A; conditions: C3A (Liver), 20 micromolar, 72 hrs
Experimental: as §1

[7] = tested on: C8166; conditions: C8166 (Leukemia), 20 micromolar, 72 hrs
Experimental: as §1

[8] = tested on: CCF-STTG1; conditions: CCF-STTG1 (Brain), 20 micromolar, 72 hrs
Experimental: as §1

[9] = tested on: CW-2; conditions: CW-2 (Colon), 20 micromolar, 72 hrs
Experimental: as §1

[10] = tested on: ChaGo-K-1; conditions: ChaGo-K-1 (Lung), 20 micromolar, 72 hrs
Experimental: as §1

[11] = tested on: Colo 205; conditions: Colo 205, 20 micromolar, 72 hrs
Experimental: as §1

[12] = tested on: HCC1395; conditions: HCC1395 (Breast), 20 micromolar, 72 hrs
Experimental: as §1

[13] = tested on: HCC1569; conditions: HCC1569 (Breast), 20 micromolar, 72 hrs
Experimental: as §1

[14] = tested on: HCC1599; conditions: HCC1599 (Breast), 20 micromolar, 72 hrs
Experimental: as §1

[15] = tested on: HCC1937; conditions: HCC1937 (Breast), 20 micromolar, 72 hrs
Experimental: as §1

[16] = tested on: HEC-1-A; conditions: HEC-1-A (Uterus), 20 micromolar, 72 hrs
Experimental: as §1

[17] = tested on: HGC-27; conditions: HGC-27 (Stomach), 20 micromolar, 72 hrs
Experimental: as §1

[18] = tested on: HPAF-II; conditions: HPAF-II (Pancreas), 20 micromolar, 72 hrs
Experimental: as §1

[19] = tested on: HT-1197; conditions: HT-1197 (Urinary bladder), 20 micromolar, 72 hrs
Experimental: as §1

[20] = tested on: J82; conditions: J82 (Urinary bladder), 20 micromolar, 72 hrs
Experimental: as §1

[21] = tested on: M059J; conditions: M059J (Brain), 20 micromolar, 72 hrs
Experimental: as §1

[22] = tested on: MSTO-211-H; conditions: MSTO-211-H (Lung), 20 micromolar, 72 hrs
Experimental: as §1

[23] = tested on: NCI-H1623; conditions: NCI-H1623 (Lung), 20 micromolar, 72 hrs
Experimental: as §1

[24] = tested on: NCI-H1694; conditions: NCI-H1694 (Lung), 20 micromolar, 72 hrs
Experimental: as §1

[25] = tested on: NCI-H1770; conditions: NCI-H1770 (Lung), 20 micromolar, 72 hrs
Experimental: as §1

[26] = tested on: NCI-H2347; conditions: NCI-H2347 (Lung), 20 micromolar, 72 hrs
Experimental: as §1

[27] = tested on: NCI-H2405; conditions: NCI-H2405 (Lung), 20 micromolar, 72 hrs
Experimental: as §1

[28] = tested on: NCI-H28; conditions: NCI-H28 (Lung), 20 micromolar, 72 hrs
Experimental: as §1

[29] = tested on: NCI-H524; conditions: NCI-H524 (Lung), 20 micromolar, 72 hrs
Experimental: as §1

[30] = tested on: Panc 03.27; conditions: Panc 03.27 (Pancreas), 20 micromolar, 72 hrs
Experimental: as §1

[31] = tested on: RL95; conditions: RL95 (Uterus), 20 micromolar, 72 hrs
Experimental: as §1

[32] = tested on: SW13; conditions: SW13 (Adrenal gland), 20 micromolar, 72 hrs
Experimental: as §1

[33] = tested on: T47D; conditions: T47D (Breast), 20 micromolar, 72 hrs
Experimental: as §1

[34] = tested on: T98G; conditions: T98G (Brain), 20 micromolar, 72 hrs
Experimental: as §1

[35] = tested on: TCCSUP; conditions: TCCSUP (Urinary bladder), 20 micromolar, 72 hrs
Experimental: as §1

[36] = tested on: ZR-75-30; conditions: ZR-75-30 (Breast), 20 micromolar, 72 hrs
Experimental: as §1

SMILES	Percent Inhibition [1]	Percent Inhibition [2]	Percent Inhibition [3]	Percent Inhibition [4]	Percent Inhibition [5]	Percent Inhibition [6]	Percent Inhibition [7]	Percent Inhibition [8]	Percent Inhibition [9]	Percent Inhibition [10]	Percent Inhibition [11]	Percent Inhibition [12]	Percent Inhibition [13]	Percent Inhibition [14]	Percent Inhibition [15]	Percent Inhibition [16]	Percent Inhibition [17]	Percent Inhibition [18]	Percent Inhibition [19]	Percent Inhibition [20]	further results
COc1cc(O)c2c(=O)c3c(CC=C(C)C)cc(O)c(O)c3oc2c1CC=C(C)CCC=C(C)C [Go-23]	94%	96%	70%	96%	96%	77%	95%	87%	97%	94%	96%	97%	97%	98%	96%	76%	97%	82%	96%	97%	Percent Inhibition [21]: 93%; Percent Inhibition [22]: 95%; Percent Inhibition [23]: 92%; Percent Inhibition [24]: 98%; Percent Inhibition [25]: 98%; Percent Inhibition [26]: 68%; Percent Inhibition [27]: 98%; Percent Inhibition [28]: 82%; Percent Inhibition [29]: 98%; Percent Inhibition [30]: 92%; Percent Inhibition [31]: 97%; Percent Inhibition [32]: 96%; Percent Inhibition [33]: 94%; Percent Inhibition [34]: 98%; Percent Inhibition [35]: 93%; Percent Inhibition [36]: 95%
CC(C)=CCCC1(C)C=Cc2c(O)c3c(c(CC=C(C)C)c2O1)OC12C(=CC4CC1C(C)(C)OC2(CC=C(C)C(=O)O)C4=O)C3=O (mixture of isomers) [GB8]	99%	99%	99%	100%	99%	99%	100%	99%	99%	99%	99%	99%	100%	100%	100%	100%	100%	99%	99%	99%	Percent Inhibition [21]: 100%; Percent Inhibition [22]: 100%; Percent Inhibition [23]: 99%; Percent Inhibition [24]: 100%; Percent Inhibition [25]: 100%; Percent Inhibition [26]: 99%; Percent Inhibition [27]: 99%; Percent Inhibition [28]: 99%; Percent Inhibition [29]: 98%; Percent Inhibition [30]: 99%; Percent Inhibition [31]: 100%; Percent Inhibition [32]: 99%; Percent Inhibition [33]: 100%; Percent Inhibition [34]: 100%; Percent Inhibition [35]: 100%; Percent Inhibition [36]: 99%
